The text below walks through data of patent US6350767B1, “Compounds with growth hormone releasing properties” (Novo Nordisk A/S, priority 1995, dated 2002).

Counter-ions that a name gives are not always drawn.

In one data set the test system is carboxypeptidase Y and B. In words: Metabolic stability in carboxypeptidase mix (ESMS, SIM of the molecular ion). It counts as in vitro ADME. To be noted: stability after 24 h at 37° C. in carboxypeptidase Y and B, 50 mM ammoniumacetate pH 4.5; enzyme:substrate approx. 1:5 (w/w). The procedure:
(§1) Compounds of formula I may be evaluated for their metabolic stability.
(§2) Compounds were dissolved at a concentration of 1 μg/μl in water. 25 μl of this solution is added to 175 μl of the respective enzyme-solution (resulting in an enzyme:substrate ratio (w/w) of approximately 1:5). The solution is left at 37° C. overnight. 10 μl of the various degradation solutions is analyzed against a corresponding zero-sample using flow injection electrospray mass spectrometry (ESMS) with selected ion monitoring of the molecular ion. If the signal has decreased more than 20% compared to the zero-sample, the remainder of the solution is analyzed by HPLC and mass spectrometry in order to identify the extent and site(s) of degradation precisely.
(§3) Several standard peptides (ACTH 4-10, Angiotensin 1-14 and Glucagon) have been included in the stability tests in order to verify the ability of the various solutions to degrade peptides.
(§4) Enzymes (trypsin, chymotrypsin, elastase aminopeptidase M and carboxypeptidase Y and B) were all purchased from Boehringer Mannheim GmbH (Mannheim, Germany)
Carboxypeptidase mix: carboxypeptidase Y and B in 50 mM ammoniumacetate pH 4.5 (all concentrations 0.025 μg/μl).
(§5) Quantification of the compounds (before and after degradation) was done on the API III instrument using single ion monitoring of the molecular ion in question with flow injection of the analyte. […]

The subject of data set [1] is trypsin, chymotrypsin and elastase. In words: Metabolic stability in pancreatic enzyme mix (ESMS, SIM of the molecular ion). Format: in vitro ADME. To be noted: stability after 24 h at 37° C. in trypsin, 100 mM ammoniumbicarbonate pH 8.0, enzyme:substrate approx. 1:5 (w/w). The procedure:
as §1, §2, §3, §4
Pancreatic enzyme mix: trypsin, chymotrypsin and elastase in 100 mM ammoniumbicarbonate pH 8.0 (all concentrations 0.025 μg/μl).
as §5

`Cc1noc([C@@H](Cc2ccccc2)NC(=O)[C@@H](Cc2ccc3ccccc3c2)NC(=O)C2CCNCC2)n1` (stereo in doubt) (as salt: salt) had a melting point of 238 to 241 °C. For `Cc1noc([C@@H](Cc2ccccc2)NC(=O)[C@@H](Cc2ccc3ccccc3c2)NC(=O)c2cccc(CN)c2)n1` (as salt: salt), the melting point is 240 to 241 °C.

For `Cc1noc([C@@H](Cc2ccccc2)NC(=O)[C@@H](Cc2ccc3ccccc3c2)NC(=O)[C@@H]2CCCNC2)n1` (stereo in doubt) (as salt: salt), the melting point fell in the range of 198 to 200 °C. On to Glucagon, for which the Carboxy-peptidase mix result in the data set with carboxypeptidase Y and B is given as “− (Unstable (more than 20% decrease in SIM signal after 24 h in degradation solution))”. In data set [1], the Pan. enzyme mix entry is given as “− (Unstable (more than 20% decrease in SIM signal after 24 h in degradation solution))”. In turn, `Cc1noc([C@@H](Cc2ccccc2)NC(=O)C(Cc2ccc3ccccc3c2)NC(=O)/C=C/C(C)(C)N)n1` (stereo in doubt) (as salt: salt) yielded a melting point of 161 to 167 °C.
